Common to all, as to experiment: relative viability (nuclei count vs DMSO), 5 days (fraction); higher = more cells survive
Compound in experiment [1]: CC1=C(CC(=O)O)c2cc(F)ccc2/C1=C\c1ccc([S+](C)[O-])cc1 [Sulindac] + CC(=O)c1c(C)c2cnc(Nc3ccc(N4CCNCC4)cn3)nc2n(C2CCCC2)c1=O [Palbociclib] (partner 0.5 µM)
The method, boiled down:
(§1)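 Nuclei were stained with Hoechst during a one-step fixation (final 0.05% Triton X-100, 1% formaldehyde, 1 ug/ml Hoechst) carried out 5 days after dosing, then counted on 4× images. The cells, lung cancer lines in 1536-well plates, had been dosed by pin tool the day after seeding with one drug alone or a fixed anchor-drug dose plus five library-drug doses (not always all listed) in √10 steps. Relative viability is the nuclei count in treated wells divided by that in vehicle wells, and each value is the median of duplicate plates.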

Compound in experiment [2]: O=c1[nH]cc(F)c(=O)[nH]1 [5-Fluorouracil] + CS(=O)(=O)N1CCN(Cc2cc3nc(-c4cccc5[nH]ncc45)nc(N4CCOCC4)c3s2)CC1 [Pictilisib] (partner 1 µM)
An outline of the steps:
as §1

Compound in experiment [3]: O=c1[nH]cc(F)c(=O)[nH]1 [5-Fluorouracil] + O=C(CCCCCCC(=O)Nc1ccccc1)NO [Vorinostat] (partner 1 µM)
An outline of the steps:
as §1

Compound in experiment [4]: CN[C@@H]1C[C@H]2O[C@@](C)([C@@H]1OC)n1c3ccccc3c3c4c(c5c6ccccc6n2c5c31)C(=O)NC4 [Staurosporine] + Nc1ncn([C@H]2C[C@H](O)[C@@H](CO)O2)c(=O)n1 [Decitabine] (partner 2 µM)
The method, boiled down:
as §1

Consider UMC-11, for which the relative viability in experiment [1] (first compound 0.08 µM) amounted to 0.304; in experiment [1] (first compound 0.253 µM), 0.333; in experiment [1] (first compound 0.8 µM) it was 0.318; in experiment [1] (first compound 2.53 µM), 0.328; in experiment [1] (first compound 8 µM), 0.364; in experiment [2] (first compound 0.02 µM) it was 0.834. Also, the relative viability worked out at 0.601 in experiment [2] (first compound 0.2 µM); 0.397 in experiment [2] (first compound 0.6325 µM); 0.36 in experiment [2] (first compound 2 µM); 0.374 in experiment [3] (first compound 0.02 µM); 0.325 in experiment [3] (first compound 0.2 µM); 0.244 in experiment [3] (first compound 0.6325 µM). Besides, the relative viability in experiment [4] (first compound 0.005 µM) is 0.76; in experiment [4] (first compound 0.05 µM), 0.192; in experiment [4] (first compound 0.1581 µM) it was 0.153; in experiment [4] (first compound 0.5 µM) it was 0.371.

The values above are taken from the supplement of paper PMC10307832.
